Measurements: ChEMBL document CHEMBL1201862, “PubChem BioAssay data set” (2004)
The source made the active and inactive calls.

Experiments:
Kallikrein-7 = Kallikrein-7 (Homo sapiens, UniProt P49862); experiment: Fluorescence Intensity-based biochemical primary high throughput dose response assay to identify activators of kallikrein-7 (K7) zymogen.
[1] = P. falciparum Dd2 growth inhibitors, dose response, SYBR Green, dry powder samples (AID 1159566); format: functional, cell-based;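 further: potency for growth inhibition with lower SYBR green DNA signal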
[2] = P. falciparum 3D7-ScDHODH growth inhibitors, dose response, SYBR Green, dry powder samples (AID 1159570); format: functional, cell-based;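 further: parasite growth measured after 72 hours of compound exposure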
[3] = HepG2 cell cytotoxicity, dose response, cytotoxicity control, plate reader, dry powder samples (AID 1159569); format: functional, cell-based;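 further: inhibitor potency with signal falling toward the positive control level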
[4] = HepG2 cell cytotoxicity, dose response, cytotoxicity control, cherry-picked samples (AID 1159577); format: functional, cell-based
[5] = P. falciparum Dd2 growth inhibitors, dose response, SYBR Green, dry powder samples, set 4 (AID 1159572); format: functional, cell-based
[6] = P. falciparum ATP4 D1247Y mutant growth inhibitors, dose response, NITD609-resistant line, SYBR Green, dry powder (AID 1159571); format: functional, cell-based;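 further: parasites synchronized at ring stage by sorbitol before testing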
[7] = P. falciparum Dd2 growth inhibitors, dose response, SYBR Green, cherry-picked samples (AID 1159567); format: functional, cell-based
[8] = Dose-response inhibition of insulin secretion in a rat insulinoma line at 5 mM glucose (AID 1117331); format: functional, cell-based; settings: INS-1E
cells = format: functional, cell-based; settings: INS-1E
[9] = target: NAD-dependent protein deacylase sirtuin-5, mitochondrial (Homo sapiens, UniProt Q9NXA8); experiment: SIRT5 desuccinylase inhibitors, dose response, biochemical, fluorescence imaging, cherry-pick, set 5 (AID 720591);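 further: desuccinylation of succinyl peptide AMC substrate read as fluorescence after trypsin release; potency of inhibitors that lower fluorescence and may act on trypsin instead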
NAD-dependent protein deacylase sirtuin-5, mitochondrial, sequence (Q9NXA8 whole entry): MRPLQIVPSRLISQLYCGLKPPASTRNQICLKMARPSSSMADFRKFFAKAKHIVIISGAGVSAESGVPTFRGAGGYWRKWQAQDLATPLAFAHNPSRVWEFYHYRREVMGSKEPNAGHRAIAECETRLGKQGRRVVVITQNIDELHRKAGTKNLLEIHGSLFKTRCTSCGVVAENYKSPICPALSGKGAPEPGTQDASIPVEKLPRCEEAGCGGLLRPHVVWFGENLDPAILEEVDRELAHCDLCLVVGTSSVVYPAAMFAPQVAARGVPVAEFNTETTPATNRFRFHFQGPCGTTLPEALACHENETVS

[10] = A549 cell cytotoxicity, dose response, CellTiter-Glo luminescence, dry powder, set 17 (AID 1117284); format: functional, cell-based
[11] = Orthopox viral replication plaque formation Measured in Cell-Based and Microorganism Combination System Using Imaging - 2142-05_Inhibitor_Dose_DryPowder_Activity.; format: functional
[12] = Single fluorophore orthopox expression reporter, late gene expression Measured in Cell-Based and Microorganism Combination System Using Plate Reader - 2142-08_Inhibitor_Dose_DryPowder_Activity.; format: functional
[13] = inhibitors of orthopox intermediate gene expression, dose response, cell-based, single fluorophore reporter, dry powder (AID 1117271); format: functional
BJ [14] = experiment: cytotoxicity toward BJ-TERT-LT-ST fibroblasts, dose response, cell-based, RAS-independent, luminescence (AID 1935); format: functional; settings: Homo sapiens;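 further: BJ fibroblasts immortalized with TERT plus LT and ST oncogenes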
[15] = Luminescence Cell-Based Dose Response HTS to Identify Inhibitors of 5'UTR Stem-Loop Driven Prion Protein mRNA Translation in H4 Neuroglioblastoma Cells. [Related pubchem assays: 1827 (Project Summary), 1813 (Primary HTS)]; format: functional
BJ [16] = experiment: cytotoxicity toward BJ-TERT fibroblasts, dose response, cell-based, RAS-independent, luminescence (AID 1933); format: functional; settings: Homo sapiens
[17] = inhibitors of SNCA 5'UTR-driven reporter translation, confirmation, H4 neuroglioma cells, luminescence (AID 1988); format: functional, cell-based
BJ [18] = experiment: cells; format: functional, cell-based; settings: Homo sapiens
[19] = inhibitors of firefly luciferase expression or activity, dose response, H4 neuroglioma cells, luminescence (AID 1990); format: functional, cell-based
[20] = inhibitors of intracellular T. cruzi replication, confirmation, NIH3T3 host cells, beta-gal luminescence (AID 2044); format: functional, cell-based;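 further: intracellular parasites grown in NIH/3T3 mouse fibroblasts as host cells; luminescent beta-galactosidase reporter signal from transgenic T. cruzi replicating inside host cells; inhibitors lower the luminescence signal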
[21] = cytotoxicity toward DRD oncogenic fibroblasts, dose response, cell-based, non-viral oncogenic, luminescence (AID 1934); format: functional; settings: Homo sapiens
[22] = HEK293 cell cytotoxicity, dose response, cytotoxicity control, dry powder samples (AID 720567); format: functional, cell-based
[23] = P. falciparum Dd2 growth inhibitors, dose response, SYBR Green, dry powder samples, set 9 (AID 1159568); format: functional, cell-based
[24] = Plasmodium falciparum Dd2 Sybr green parasite growth Measured in Cell-Based and Microorganism Combination System Using Plate Reader - 2153-01_Inhibitor_Dose_DryPowder_Activity_Set3.; format: functional

Kallikrein-7, sequence (P49862 whole entry): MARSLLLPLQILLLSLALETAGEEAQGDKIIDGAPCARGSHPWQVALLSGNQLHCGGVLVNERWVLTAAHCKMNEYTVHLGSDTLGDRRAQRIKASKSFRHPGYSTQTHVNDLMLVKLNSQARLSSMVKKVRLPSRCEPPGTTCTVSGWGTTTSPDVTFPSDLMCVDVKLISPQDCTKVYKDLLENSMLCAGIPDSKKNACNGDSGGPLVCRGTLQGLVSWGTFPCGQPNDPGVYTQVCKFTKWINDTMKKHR

## CN(C)c1ccc(-c2cccc3nccn23)cc1
Kallikrein-7
  EC50: > 69.5 µM (inactive)

## COc1ccc2c3c([nH]c2c1)[C@H](CO)N(C(=O)Cc1ccccc1)CC31CCN(C(=O)Nc2ccccc2F)CC1
[1]
  AC50: 0.208 µM (active)
[2]
  AC50: 0.0977 µM (active)
[3]
  AC50: > 100 µM (inactive)
[4]
  AC50: 25.2 µM (active)
[5]
  AC50: 0.277 µM (active)
[6]
  AC50: 0.123 µM (active)
[7]
  AC50: 0.472 µM (active)

## CC(C)(C)c1nnc(NS(=O)(=O)c2ccccc2)s1 [GLYBUZOLE]
[8]
  IC50: 13.1 µM (inactive)
cells
  IC50: > 33.3 µM (inactive)

## Cc1ccc(S(=O)(=O)N2[C@@H](c3ccccc3)C(C(=O)O)=CC[C@H]2c2ccc(Cl)cc2)cc1
[9]
  AC50: > 30 µM (inactive)

## Cc1ccccc1-c1ccc(CN(C)C[C@@H]2Oc3cc(C#C[C@@H](C)O)ccc3S(=O)(=O)N([C@@H](C)CO)C[C@@H]2C)cc1
[10]
  AC50: 34.6 µM (active)
[11]
  AC50: 2 µM (active)
[12]
  AC50: 0.768 µM (active)
[13]
  AC50: 1.65 µM (active)

## CCC1=Nc2cc(C(=O)NCCCOC)ccc2Sc2ccccc21
BJ [14]
  EC50: 0.754 µM (inconclusive)
[15]
  EC50: 16.1 µM (active)
BJ [16]
  EC50: 1.07 µM (active)
[17]
  EC50: 0.127 µM (active)
BJ [18]
  EC50: 13.2 µM (active)
[19]
  EC50: 8.66 µM (inconclusive)
[20]
  EC50: 5.01 µM (active)
[21]
  EC50: 0.944 µM (active)
[22]
  AC50: 9.95 µM (active)

## COc1ccccc1NC(=O)Nc1ccc2c(c1)OC[C@@H](C)N(Cc1ccccc1Cl)C[C@@H](C)[C@H](OC)CN(C)C2=O
[1]
  AC50: 0.016 µM (active)
[2]
  AC50: 0.874 µM (active)
[23]
  AC50: 0.0305 µM (active)
[6]
  AC50: 0.22 µM (active)
[7]
  AC50: < 0.3 µM (active)
[24]
  AC50: 0.181 µM (active)
